Legend:
[1] = system: A549; test: Cell viability assay, 3D hanging drop cell culture (CellTiter GLO 3D); assay type: cell-based; settings: Homo sapiens; A549, 3D hanging drop cell culture, 72 h; ±SD, N = 2; read-out: IC50 antitumor activity A549 3D
Method: (§1) Compounds are diluted 1:3. 500 nL (for 2 D cell culture) or 400 nL (for 3 D cell culture) of compound were transferred from mother plate to test plate by using Mosquito (TTP labtech). DMSO percentage in test concentrations was 0.5 − 1.0%. Starting concentration of the test compounds and standard compound doxorubicin was 50 µM (2 D cell culture) or 100 µM (3 D cell culture).
(§2) Cells were grown in 96 well Perfecta 3 D hanging drop plates 5000 cell/well for 4 days until spheres were formed (and checked under the microscope). After sphere formation cells were treated with compounds followed by 72 h incubation. Cell viability assay was performed according to the manufacturer’s instruction, using CellTiter GLO 3 D for 3 D cell culture (Promega); cell incubation was 5 min on the shaker followed by 25 min incubation in the dark. Plates were read using PE EnVision luminescence.
(§3) Calculation of IC50 data, curves and QC analysis is made by using Excel tools and GraphPadPrism software (La Jolla, CA), v. […] QC criteria parameters (Z', S:B, R2, HillSlope) were checked for every IC50 curve.

[2] = system: HCC827; test: as above; assay type: cell-based; settings: Homo sapiens; HCC827, 3D hanging drop cell culture, 72 h; ±SD, N = 2; read-out: IC50 antitumor activity HCC827 3D
Method: as §1, §2, §3

[3] = system: NCI-H358; test: as above; assay type: cell-based; settings: Homo sapiens; NCI-H358, 3D hanging drop cell culture, 72 h; ±SD, N = 2; read-out: IC50 antitumor activity NCI-H358 3D
Method: as §1, §2, §3

[4] = Kinetic solubility; assay type: physicochemical; settings: aqueous buffer, kinetic from dmso stock, phosphate buffer 50 mM, pH 7.4, 1% DMSO, 37 °C
Method: Test compounds and assay controls (sulfaphenazole and α-naphtoflavone) were serially diluted in DMSO by factor 3.3x, 3x, 3.3x and 3x, resulting in a total of 5 different concentrations. Phosphate buffer (50 mM, pH 7.4) was spiked with diluted test compounds and controls with final concentration range in the assay as follows: 100, 30, 10, 3 and 1 µM (1% DMSO). Plate was then incubated by gentle shaking (200–300 rpm) for 1 h and 45 min at 37 °C. After additional15 min on room temperature (without shaking), plate absorbance at 620 nm was measured with microplate reader Tecan, Infinite F500 (total incubation time = 2 h).

[5] = Stability in plasma; assay type: in vitro ADME; settings: 37 °C
Method: Tested compounds (final concentration of 5 µM, 0.5% DMSO) were incubated for 4 h at 37 °C in human and mouse plasma, respectively. Aliquots were taken at different time points (0, 30, 120 and 240 min) and reaction was terminated by addition of a MeCN/MeOH (2:1) mixture, containing internal standard (diclofenac). Samples were then centrifuged (at 4500 rpm, at 4 °C, for 30 min) and resulting supernatants were subjected to LC-MS/MS analysis. The same procedure was followed for controls used in the assay: propranolol (both species), benfluorex (mouse) and eucatropine (human), respectively.
(§4) All ADME samples were analysed on a Sciex API 4000 or Sciex API4500 Triple Quadrupole Mass Spectrometer (Sciex, Framingham, MA, USA) coupled to a UHPLC System (Shimadzu Nexera X2; Shimadzu, Kyoto, Japan). Samples were injected onto an UPLC column (HALO2 C18, 2.1 × 20 mm, 2 µm or Phenomenex Luna Omega Polar C18, 30 × 2.1 mm, 1.6 µm) and eluted with a gradient at temperature of 50 °C. The mobile phase was composed of acetonitrile (with 0.1% formic acid) and 0.1% formic acid in deionised water. A total run time was 1 or 1.5 min, with the flow rate of 0.7 ml/min (under gradient conditions). A positive ion mode with turbo spray, an ion source temperature of 500 °C and a dwell time of 150 ms were utilised for mass spectrometric detection. Multiple reaction monitoring (MRM) was used at the specific transitions for each compound/control tested: compound 5c: 361.9 → 304.9; compound 5d: 344.8 → 287.9; compound 5e: 349.8 → 292.9; compound 5 g: 350.8 → 293.9; compound 5 h: 344.0 → 286.9; compound 6a: 276.9 → 220.0; compound 5 b: 319.0 → 262.0; compound 6 b: 302.1 → 245.1; compound 6c: 344.9 → 288.0; compound 6d: 333.0 → 276.0; compound 6e: 316.1 → 259.0; compound 6f: 327.1 → 270.0; compound 6 g: 377.1 → 320.1; testosterone: 289.3→ 97.1; propranolol: 260.1 → 182.8; caffeine: 195.2 → 138.1; acebutolol: 337.2 → 116.2, nicardipine: 480.2 → 315.0; verapamil: 455.4 → 165.1; amprenavir: 506.2 → 245.4; diclofenac: 296.1 → 213.7 or 296.2 → 215.3; eucatropine: 292.2 → 109.1; benfluorex: 352.1 → 230.3, and warfarin: 309.2 → 163.2

[6] = system: P-glycoprotein (human MDR1); test: MDCKII-MDR1 permeability and P-glycoprotein substrate assay; assay type: in vitro ADME, canine cells over-expressing human MDR1; settings: dog; for efflux ratio at 60 min, 10 µM: MDCK-MDR1, pH 7.4, without P-gp inhibitor; for Papp A→B at 60 min, 10 µM / Papp B→A at 60 min, 10 µM: MDCK-MDR1, pH 7.4, without P-gp inhibitor; for Papp A→B at 60 min, 10 µM: read-out: MDCKII-MDR1 Papp(A2B); for Papp B→A at 60 min, 10 µM: read-out: MDCKII-MDR1 Papp(B2A)
Method: Permeability and P-glycoprotein substrate assessment was done on MDCKII-hMDR1, Madin-Darby canine epithelial cells over-expressing human MDR1 gene, coding for P-glycoprotein.
Cells were prepared for transport studies by seeding on 96-well cell culture inserts (Millipore, MA, USA) in a concentration of 0.25 × 10^6 cells per ml. The cells were fed with fresh medium 24 h post seeding and cultured to confluence for 3 days before use. On the day of experiment, the cell monolayers were washed and equilibrated with transport medium (DPBS, pH 7.4 containing 1% DMSO) with or without P-gp specific inhibitor, elacridar (2 µM) for 45 min (37 °C, 5% CO2, 95% humidity). Test compound solution consisted of test substance (10 μM) in D-PBS medium containing lucifer yellow (100 μM) and 1% DMSO. Transport assays were conducted in apical to basolateral (A2B) and basolateral to apical (B2A) directions, respectively. Monolayers were incubated with the compound solution for 60 min at 37 °C under gentle agitation. Apical and basolateral compartments were sampled at the end of the transport experiment, while donor solutions were also sampled at the beginning of the experiment in order to determine initial concentration. Test substance concentrations in both compartments were determined by LC-MS/MS. There were several controls used in the assay: 1) amprenavir (0.5 μM) served as a low permeable control, being also a P-gp substrate; 2) diclofenac (10 μM) was used as a high permeable control; 3) Lucifer yellow, a fluorescent marker for the paracellular membrane transport, was used as a control of cell monolayer integrity.
as §4

| Compound | IC50 [1] [µM] | IC50 [2] [µM] | IC50 [3] [µM] | solubility kinetic at 2 h [4] [µM] | remaining at 4 h, 5 µM ([5]; human plasma) [%] | efflux ratio at 60 min, 10 µM [6] | Papp A→B at 60 min, 10 µM [6] [×10⁻⁶ cm/s] | Papp B→A at 60 min, 10 µM [6] [×10⁻⁶ cm/s] | remaining at 4 h, 5 µM ([5]; mouse plasma) [%] |
| --- | --- | --- | --- | --- | --- | --- | --- | --- | --- |
| c1ccc2cc(-c3nc4cc(C5=NCCCN5)ccc4[nH]3)ccc2c1 [Compound 6f, 2-(Naphthalene-2-yl)-5(6)–(3,4,5,6-tetrahydropyrimidin-1-ium-2-yl)benzimidazole chloride] | > 100 | > 100 | > 100 | 30 to 100 | 106 | 3.23 | 0.78 | 2.49 | – |
| c1ccc2c(c1)cc(-c1nc3cc(C4=NCCCN4)ccc3[nH]1)c1ccccc12 [Compound 6g, 2-(Phenanthrene-9-yl)-5(6)–(3,4,5,6-tetrahydropyrimidin-1-ium-2-yl)benzimidazole chloride] | > 100 | > 100 | > 100 | 30 to 100 | 85 | 6.6 | 0.02 | 0.2 | 81 |

Reference: article PMC7801115, “Preclinical in vitro screening of newly synthesised amidino substituted benzimidazoles and benzothiazoles” (Journal of Enzyme Inhibition and Medicinal Chemistry, 2021)
